Source: US12624018B1, “Inhibitors of RIPK2 and medical uses thereof” (Odyssey Therapeutics, Inc., priority 2022, dated 2026)

target: T1, RIPK2 enzyme (Homo sapiens, UniProt O43353); assay: RIPK2 inhibition (ADP-Glo Kinase Assay); assay type: biochemical; conditions: RIPK2 5 nM, ATP 150 μM, MBP substrate, read-out: RIPK2 IC50
T1 construct: purchased Carna 09-128
Procedure: RIPK2 inhibition was measured as follows:
The V9102 ADP-Glo Kinase Assay (including ultrapure ATP, 10 mM) was purchased from Promega. Native swine MBP was used as the substrate for the reaction and was purchased from SignalChem Biotech (catalogue number M42-51N). Assay buffer used for the assay consisted of the following components: MgCl2 (final concentration of 10 mM), Brij-35 (0.01%), DTT (final concentration of 2 mM), BSA (0.05%), EGTA (final concentration of 1 mM), and HEPE (pH 7.5 at final concentration of 50 mM).
Method: In a 384 well plate, 10 nL of test compound was dispensed using Echo550 and mixed with RIPK2 enzyme (final concentration of 5 nM) in assay buffer for 30 minutes at room temperature. […] Then ADP-Glo reagent was added and incubated for 60 min at room temperature. Last, Kinase Detection Reagent was added to the mixture and incubated for 60 min. The resulting luminescent signal was measured with an Envision reader to determine the amount of ADP produced. All plates contained vehicle controls (10 nL DMSO only) as a reference for the high control (0% kinase inhibition), and wells with no RIPK2 enzyme as reference for low control (100% kinase inhibition). Data were analyzed to determine the percent inhibition of ADP production in the presence of test compound using both low and high controls.

T1 sequence (O43353 1-299 limits assumed): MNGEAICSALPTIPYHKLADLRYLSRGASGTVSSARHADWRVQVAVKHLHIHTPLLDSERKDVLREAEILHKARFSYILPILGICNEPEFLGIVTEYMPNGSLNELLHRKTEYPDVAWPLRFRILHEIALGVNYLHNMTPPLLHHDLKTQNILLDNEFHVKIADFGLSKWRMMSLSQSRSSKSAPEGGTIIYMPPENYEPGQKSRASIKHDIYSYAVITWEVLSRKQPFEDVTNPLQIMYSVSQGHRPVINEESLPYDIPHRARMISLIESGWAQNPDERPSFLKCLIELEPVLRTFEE

IC50, < 2.5 nM:
Cc1cc(CC(=O)Nc2cnn(C(C)(C)C)c2)ccc1Oc1ccnc2ccc(S(=O)(=O)C3CC(N)C3)cc12 (single isomer, unassigned) [Compound 283, 2-(4-((6-((-3-aminocyclobutyl)sulfonyl)quinolin-4-yl)oxy)-3-methylphenyl)-N-(1-(tert-butyl)-1H-pyrazol-4-yl)acetamide]
Cc1c(Oc2ccnc3ccc(S(=O)(=O)C4CC(O)C4)cc23)ccc(CC(=O)Nc2cnn(C(C)(C)C)c2)c1F (single isomer, unassigned) [Compound 285, N-(1-(tert-butyl)-1H-pyrazol-4-yl)-2-(2-fluoro-4-((6-((-3-hydroxycyclobutyl)sulfonyl)quinolin-4-yl)oxy)-3-methylphenyl)acetamide]
Cc1c(Oc2ccnc3ccc(S(=O)(=O)C4CC(O)C4)cc23)ccc(CC(=O)Nc2cnn(C(C)(C)C)c2)c1F (single isomer, unassigned) [Compound 286, N-(1-(tert-butyl)-1H-pyrazol-4-yl)-2-(2-fluoro-4-((6-((-3-hydroxycyclobutyl)sulfonyl)quinolin-4-yl)oxy)-3-methylphenyl)acetamide]
Cc1c(Oc2ccnc3ccc(S(=O)(=O)C4CC(N)C4)cc23)ccc(CC(=O)Nc2cnn(C(C)(C)C)c2)c1F (single isomer, unassigned) [Compound 287, 2-(4-((6-((-3-aminocyclobutyl)sulfonyl)quinolin-4-yl)oxy)-2-fluoro-3-methylphenyl)-N-(1-(tert-butyl)-1H-pyrazol-4-yl)acetamide]
Cc1c(Oc2ccnc3ccc(S(=O)(=O)C4CC(N)C4)cc23)ccc(CC(=O)Nc2cnn(C(C)(C)C)c2)c1F (single isomer, unassigned) [Compound 288, 2-(4-((6-((-3-aminocyclobutyl)sulfonyl)quinolin-4-yl)oxy)-2-fluoro-3-methylphenyl)-N-(1-(tert-butyl)-1H-pyrazol-4-yl)acetamide]
Cc1cc(CC(=O)Nc2cnn(C(C)(C)C)c2)ccc1Oc1ccnc2ccc(N3C(=O)CCC3C)cc12 (single isomer, unassigned) [Compound 291, N-(1-(tert-butyl)-1H-pyrazol-4-yl)-2-(3-methyl-4-((6-(2-methyl-5-oxopyrrolidin-1-yl)quinolin-4-yl)oxy)phenyl) acetamide]
Cc1cc(CC(=O)Nc2cnn(C(C)(C)C)c2)ccc1Oc1ccnc2ccc(N3C(=O)CCC3C)cc12 (single isomer, unassigned) [Compound 292, N-(1-(tert-butyl)-1H-pyrazol-4-yl)-2-(3-methyl-4-((6-(2-methyl-5-oxopyrrolidin-1-yl)quinolin-4-yl)oxy)phenyl) acetamide]
Cc1c(Oc2ccnc3ccc(N4C(=O)CCC4C)cc23)ccc(CC(=O)Nc2cnn(C(C)(C)C)c2)c1F (single isomer, unassigned) [Compound 296, N-(1-(tert-butyl)-1H-pyrazol-4-yl)-2-(2-fluoro-3-methyl-4-((6-(2-methyl-5-oxopyrrolidin-1-yl)quinolin-4-yl)oxy)phenyl) acetamide]
Cc1c(Oc2ccnc3ccc(N4C(=O)CCC4C)cc23)ccc(CC(=O)Nc2cnn(C(C)(C)C)c2)c1F (single isomer, unassigned) [Compound 297, N-(1-(tert-butyl)-1H-pyrazol-4-yl)-2-(2-fluoro-3-methyl-4-((6-(2-methyl-5-oxopyrrolidin-1-yl)quinolin-4-yl)oxy)phenyl) acetamide]
Cc1c(Oc2ccnc3ccc(C4CCNC4=O)cc23)ccc(CC(=O)Nc2cnn(C(C)(C)C)c2)c1F (single isomer, unassigned) [Compound 304, N-(1-(tert-butyl)-1H-pyrazol-4-yl)-2-(2-fluoro-3-methyl-4-((6-(2-oxopyrrolidin-3-yl)quinolin-4-yl)oxy)phenyl)acetamide]
Cc1c(Oc2ccnc3ccc(C4CCNC4=O)cc23)ccc(CC(=O)Nc2cnn(C(C)(C)C)c2)c1F (single isomer, unassigned) [Compound 305, N-(1-(tert-butyl)-1H-pyrazol-4-yl)-2-(2-fluoro-3-methyl-4-((6-(2-oxopyrrolidin-3-yl)quinolin-4-yl)oxy)phenyl)acetamide]
Cc1cc(CC(=O)Nc2cnn(C(C)(C)C)c2)ccc1Oc1ccnc2ccc(N3CC(CO)OC3=O)cc12 (single isomer, unassigned) [Compound 317, N-(1-(tert-butyl)-1H-pyrazol-4-yl)-2-(4-((6-(5-(hydroxymethyl)-2-oxooxazolidin-3-yl)quinolin-4-yl)oxy)-3-methylphenyl) acetamide]
Cc1cc(CC(=O)Nc2cnn(C(C)(C)C)c2)ccc1Oc1ccnc2ccc(N3CC(CO)OC3=O)cc12 (single isomer, unassigned) [Compound 318, N-(1-(tert-butyl)-1H-pyrazol-4-yl)-2-(4-((6-(5-(hydroxymethyl)-2-oxooxazolidin-3-yl)quinolin-4-yl)oxy)-3-methylphenyl) acetamide]
Cc1cc(CC(=O)Nc2cnn(C(C)(C)C)c2)ccc1Oc1ccnc2ccc(N3CC(CN)OC3=O)cc12 (single isomer, unassigned) [Compound 319, 2-(4-((6-(5-(aminomethyl)-2-oxooxazolidin-3-yl)quinolin-4-yl)oxy)-3-methylphenyl)-N-(1-(tert-butyl)-1H-pyrazol-4-yl)acetamide]
Cc1cc(CC(=O)Nc2cnn(C(C)(C)C)c2)ccc1Oc1ccnc2ccc(N3CC(CN)OC3=O)cc12 (single isomer, unassigned) [Compound 320, 2-(4-((6-(5-(aminomethyl)-2-oxooxazolidin-3-yl)quinolin-4-yl)oxy)-3-methylphenyl)-N-(1-(tert-butyl)-1H-pyrazol-4-yl)acetamide]
Cc1cc(CC(=O)Nc2cnn(C(C)(C)C)c2)ccc1Oc1ccnc2ccc([S+](C)[O-])cc12 (single isomer, unassigned) [Compound 321, N-(1-(tert-butyl)-1H-pyrazol-4-yl)-2-(3-methyl-4-((6-(methylsulfinyl)quinolin-4-yl)oxy)phenyl)acetamide]
Cc1cc(CC(=O)Nc2cnn(C(C)(C)C)c2)ccc1Oc1ccnc2ccc([S+](C)[O-])cc12 (single isomer, unassigned) [Compound 322, N-(1-(tert-butyl)-1H-pyrazol-4-yl)-2-(3-methyl-4-((6-(methylsulfinyl)quinolin-4-yl)oxy)phenyl)acetamide]
Cc1c(Oc2ccnc3ccc([S+](C)[O-])cc23)ccc(CC(=O)Nc2cnn(C(C)(C)C)c2)c1F (single isomer, unassigned) [Compound 323, N-(1-(tert-butyl)-1H-pyrazol-4-yl)-2-(2-fluoro-3-methyl-4-((6-(methylsulfinyl)quinolin-4-yl)oxy)phenyl)acetamide]
Cc1c(Oc2ccnc3ccc([S+](C)[O-])cc23)ccc(CC(=O)Nc2cnn(C(C)(C)C)c2)c1F (single isomer, unassigned) [Compound 324, N-(1-(tert-butyl)-1H-pyrazol-4-yl)-2-(2-fluoro-3-methyl-4-((6-(methylsulfinyl)quinolin-4-yl)oxy)phenyl)acetamide]
Cc1cc(CC(=O)Nc2cnn(C(C)(C)C)c2)ccc1Oc1ccnc2ccc(N3CCC(O)C3=O)cc12 (single isomer, unassigned) [Compound 326, N-(1-(tert-butyl)-1H-pyrazol-4-yl)-2-(4-((6-(3-hydroxy-2-oxopyrrolidin-1-yl)quinolin-4-yl)oxy)-3-methylphenyl) acetamide]
Cc1cc(CC(=O)Nc2cnn(C(C)(C)C)c2)ccc1Oc1ccnc2ccc(N3CCC(O)C3=O)cc12 (single isomer, unassigned) [Compound 327, N-(1-(tert-butyl)-1H-pyrazol-4-yl)-2-(4-((6-(3-hydroxy-2-oxopyrrolidin-1-yl)quinolin-4-yl)oxy)-3-methylphenyl) acetamide]
Cc1c(Oc2ccnc3ccc(C(=O)N4CCC(O)C4)cc23)ccc(CC(=O)Nc2cnn(C(C)(C)C)c2)c1F (single isomer, unassigned) [Compound 351, N-(1-(tert-butyl)-1H-pyrazol-4-yl)-2-(2-fluoro-4-((6-(3-hydroxy-pyrrolidine-1-carbonyl)quinolin-4-yl)oxy)-3-methyl-phenyl) acetamide]
Cc1c(Oc2ccnc3ccc(C(=O)N4CCC(O)C4)cc23)ccc(CC(=O)Nc2cnn(C(C)(C)C)c2)c1F (single isomer, unassigned) [Compound 352, N-(1-(tert-butyl)-1H-pyrazol-4-yl)-2-(2-fluoro-4-((6-(3-hydroxy-pyrrolidine-1-carbonyl)quinolin-4-yl)oxy)-3-methyl-phenyl) acetamide]
Cc1c(Oc2ccnc3ccc(C(=O)N4CCC(N)C4)cc23)ccc(CC(=O)Nc2cnn(C(C)(C)C)c2)c1F (single isomer, unassigned) [Compound 353, 2-(4-((6-(3-amino-pyrrolidine-1-carbonyl)quinolin-4-yl)oxy)-2-fluoro-3-methyl-phenyl)-N-(1-(tert-butyl)-1H-pyrazol-4-yl)acetamide]
